The values that follow come from patent US7105567B2, “3-substituted urea derivatives and medicinal use thereof” (Mitsubishi Pharma Corporation, priority 2000, dated 2006).

Counter-ions that a name gives are not always drawn.

Data set [1] concerns C5a stimulated neutrophile. Briefly: Production of reactive oxygen species in C5a-stimulated neutrophile. The data set is classed as cell-based. To be noted: human neutrophile, C5a 3 nmol/L, luminol luminescence; read-out: IC50 value, inhibition of production of reactive oxygen species in C5a stimulated neutrophile. The method, then:
A neutrophile fraction was separately taken from human peripheral venous blood using Lympholyte-poly (Cedarlane), and suspended in Hank's Balanced Salt Solution (HBSS, GIBCO BRL) containing 1% fetal bovine serum (FBS) and 1 mmol/L of luminol (Wako Pure Chemical Industries, Ltd.). Reactive oxygen species was measured using a luminometer (MicroLumat, Berthold) for 96 well plate. That is, 1×10^5 cells/150 μL of neutrophile suspension and 25 μL of a test compound solution were added to a well, which was set in a MicroLumat set for 37° C. and stood for about 5 min. Then, 25 μL of C5a (final concentration 3 nmol/L) was added and luminescence produced by the reaction of the luminol and the reactive oxygen species was measured with the lapse of time for 15 min. The rate (% inhibition) of inhibition of the production of reactive oxygen species in C5a stimulated neutrophile by the test compound was calculated by the following formula, wherein the peak value of the production of reactive oxygen species derived by C5a without addition of the test compound is Max, the peak value of the production of reactive oxygen species without addition of the test compound and without C5a stimulation is Min, and the peak value of the production of reactive oxygen species derived by C5a with the addition of the test compound is Test. % inhibition=100−[(Test−Min)/(Max−Min)]×100 […]

The test system of data set [2] is C5a-stimulated neutrophile. Nature of the data set: Migrating ability of C5a-stimulated neutrophile. To be noted: 1.5 h; human neutrophile, C5a 100 pmol/L, chemotaxicell, 90 min; read-out: IC50 value, inhibition of migration of C5a-stimulated neutrophile. The data set is classed as cell-based. The protocol: A neutrophile fraction was separately taken from human peripheral venous blood using Lympholyte-poly (Cedarlane) and suspended in RPMI 1640 medium (GIBCO BRL) supplemented with 0.1% bovine serum albumin (BSA). To this neutrophile fraction (5×10^6 cells/mL) was added Calcein-AM (final concentration 5 μM, FUNAKOSHI), and the mixture was incubated at 37° C. for 30 min. The cells were washed by centrifugation and suspended to a concentration of 1×10^6 cells/mL. The migration was evaluated by adding neutrophiles to chemotaxicell (pore size: 3 μm, KURABO) and measuring the neutrophiles that migrated outside the chemotaxicell. First, 100 pmol/L of C5a solution was added to 24 well plate (500 μL/well) and chemotaxicell was set in the well. […] The fluorescent intensity of each well was measured by Cyto Fluor II (Ex: 485, Em: 530). The rate (% inhibition) of the inhibition of migration of C5a-stimulated neutrophile by the test compound was calculated by the following formula, wherein the fluorescence intensity of neutrophile that migrated by C5a stimulation without addition of the test compound is Max, the fluorescent intensity of neutrophile that migrated without addition of test compound and without C5a stimulation is Min, and the fluorescent intensity of neutrophile that migrated by C5a stimulation with the addition of the test compound is Test. % inhibition=100−[(Test−Min)/(Max−Min)]×100 […]

In data set [3] the test system is C5a stimulated neutrophile. Briefly: Action on increase of intracellular Ca2+ concentration of C5a stimulated neutrophile. The data set is classed as cell-based, human. The method, then: A neutrophile fraction was separately taken from human peripheral venous blood using Lympholyte-poly (Cedarlane), and suspended in Hank's Balanced Salt Solution (HBSS, GIBCO BRL) supplemented with 1% fetal bovine serum (FBS). Then, Fura 2-AM (final concentration 5 μM, DOJINDO) was added to the neutrophile fraction (5×10^6 cells/mL), and the mixture was incubated at 37° C. for 40 min. The cells were washed by centrifugation and suspended to the concentration of 1×10^6 cells/mL. The intracellular Ca^2+ concentration was measured using a spectrophotofluorometer (CAF-110, JASCO Corporation), and calculated from the ratio (Ex340 value/Ex380 value) of fluorescent intensities at 500 nm upon excitation at 340 nm and 380 nm, the former being Ex340 value, the latter being Ex380 value. […] Then, Triton X-100 (final concentration 0.2%) was added and the cells were dissolved, and, sb2 value, which was the Ex 340 value then, and Rmax value, which was the Ex340 value/Ex380 value then, was measured. Then, EGTA (final concentration 3 mmol/L) was added and sf2 value, which was the Ex340 value then, and Rmin value, which was the Ex340/Ex380 value then, was measured. From these measurement results, the intracellular Ca^2+ concentration was calculated from the following formula. […]

A further data set addresses T1, C5a receptor (Homo sapiens, UniProt P21730).
T1 construct: U-937 cell was stimulated with 1 mM dibutyryl cyclic AMP (dcAMP, SIGMA) for 2 days to express the C5a receptor; endogenous in cells; host or cells: U-937 cells (human histiocytic lymphoma line) differentiated with 1 mM dibutyryl cAMP for 2 days
T1 sequence (P21730 1-350): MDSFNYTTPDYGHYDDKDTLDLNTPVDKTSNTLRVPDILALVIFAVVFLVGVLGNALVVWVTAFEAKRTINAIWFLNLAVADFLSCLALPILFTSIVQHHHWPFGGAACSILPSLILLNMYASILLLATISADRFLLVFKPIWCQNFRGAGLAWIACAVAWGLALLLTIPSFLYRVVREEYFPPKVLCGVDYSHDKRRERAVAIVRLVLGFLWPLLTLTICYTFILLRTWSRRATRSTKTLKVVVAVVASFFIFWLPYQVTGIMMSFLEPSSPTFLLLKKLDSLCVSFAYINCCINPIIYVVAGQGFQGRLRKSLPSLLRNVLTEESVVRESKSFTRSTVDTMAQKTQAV
Briefly: C5a receptor binding assay ([125I]-human C5a, dcAMP-U-937 cells). To be noted: dcAMP-U-937 cell, [125I]-C5a 200 pM, 4° C. for 2 hr; read-out: IC50 value, concentration at which binding of [125I]-human C5a is inhibited by 50%. The method, then:
The C5a receptor binding inhibitory action of C5a and the test compound was evaluated by a receptor binding assay comprising reacting human cell line U-937 (human histiocytic lymphoma line), which expresses the C5a receptor, with [^125I]-human C5a (Amersham Pharmacia Biotech) in a MultiScreen (MILLIPORE). First, U-937 cell was stimulated with 1 mM dibutyryl cyclic AMP (dcAMP, SIGMA) for 2 days to express the C5a receptor (dcAMP-U-937 cell), and suspended in a binding buffer [50 mM HEPES, 1 mM CaCl2, 5 mM MgCl2, 0.5% bovine serum albumin (BSA, SIGMA), 0.02% NaN3 (pH 7.2)] and stored at −80° C. The binding assay was started by the addition of 50 μL of dcAMP-U-937 cell suspension dissolved immediately before use, 25 μL of a binding buffer or a test compound solution, and 25 μL of [^125I]-C5a solution (final concentration 200 pM), to each well of the MultiScreen. […] After drying the MultiScreen, the radioactivity on the filter was measured using a gamma counter. The rate (% inhibition) of inhibition of C5a binding by the test compound was calculated by the following formula using the count value obtained without addition of the test compound as Total, the count value obtained with addition of non-labeled C5a as Non, and the count value obtained with addition of the test compound as Test. % Inhibition=100−[(Test−Non)/(Total−Non)]×100 […]

Data set [4] relates to C5a-Induced Decrease in Neutrophile in Cynomolgus Monkey. Briefly: C5a-induced decrease in neutrophile in cynomolgus monkey. In kind it is in vivo. To be noted: 30 mg/kg orally, human C5a administered 4 hr later. The protocol: The action of the test compound on the decrease of neutrophile in peripheral blood, that occurs temporarily upon intravenous administration of human C5a to cynomolgus monkey, was evaluated. That is, the test compound was orally administered to cynomolgus monkey, and 4 hr later, human C5a was administered. The neutrophiles in peripheral blood were counted 2 min before and 1 min after administration of human C5a, and the rate (%) of decrease in neutrophiles in peripheral blood was calculated by the following formula. decrease rate (%)=100−[(neutrophiles in peripheral blood 1 min after administration of human C5a)/(neutrophiles in peripheral blood 2 min before administration of human C5a)]×100
Using the following formula, moreover, the inhibition rate (% inhibition) of decrease in neutrophiles in peripheral blood by the test compound was calculated. % inhibition=100−[(Test−Min)/(Max−Min)]×100 • Test: decrease rate of neutrophiles in peripheral blood when test compound and human C5a were administered • Min: decrease rate of neutrophiles in peripheral blood upon administration of administration medium for test compound and administration medium for human C5a • Max: decrease rate of neutrophiles in peripheral blood upon administration of administration medium for test compound and human C5a

What is called melting point is the temperature, or range, at which the solid turns liquid.

For `CC(C)c1ccc(N(Cc2ccc(N(C)C)cc2)C(=O)Nc2c(C(C)C)cccc2C(C)C)cc1` (as salt: fumarate) [Example 34, N′-(2,6-diisopropylphenyl)-N-[(4-dimethylaminophenyl)methyl]-N-(4-isopropylphenyl)urea 9/10 fumarate], the melting point is 203 to 206 °C.

`CC(C)c1cccc(C(C)C)c1NC(=O)N(Cc1ccc(N(C)C)cc1)c1ccc(F)cc1` [Example 1, N′-(2,6-diisopropylphenyl)-N-[(4-dimethylaminophenyl)methyl]-N-(4-fluorophenyl)urea] showed a melting point of 124 to 125 °C.

As for `CC(C)c1ccc(N(Cc2ccc(N(C)C)cc2)C(=O)Nc2c(C(C)C)cccc2C(C)C)cc1` [Example 34, N′-(2,6-diisopropylphenyl)-N-[(4-dimethylaminophenyl)methyl]-N-(4-isopropylphenyl)urea 9/10 fumarate], the IC50 turned out to be 10 nM in data set [1]; 100 nM in data set [2]; 5 nM in data set [3] (human peripheral blood neutrophile, recombinant human C5a 100 pmol/L, Fura 2-AM, read-out: IC50 value, inhibition of increase in intracellular Ca2+ concentration of C5a-stimulated neutrophile); 100 nM on C5a receptor. Further, in data set [3] (compound 10 μmol/L, human neutrophile), the “agonistic action (increase in intracellular Ca2+ induced by the compound)” value was “not found”.

With `CC(C)c1ccc(N(Cc2ccc(Br)cc2)C(=O)Nc2c(C(C)C)cccc2C(C)C)cc1` [Example 53, N-[(4-bromophenyl)methyl]-N′-(2,6-diisopropylphenyl)-N-(4-isopropylphenyl)urea], in data set [4], the “% inhibition of decrease in neutrophiles in peripheral blood” value came out at 74%.

With `CC(C)c1ccc(N(Cc2cnn(Cc3ccc(C(F)(F)F)cc3)c2)C(=O)Nc2c(C(C)C)cccc2C(C)C)cc1` [Example 61, N′-(2,6-diisopropylphenyl)-N-(4-isopropylphenyl)-N-{[1-(4-trifluoromethylbenzyl)pyrazol-4-yl]methyl}urea], the melting point lay in the range of 134 to 135 °C.
